# Assay results from patent US6677466B1, “Method for stabilizing hydrogen peroxide” (DSM Fine Chemicals Austria NFG GmbH & Co KG, priority 1999, dated 2004).
# Test: O2 evolution from [Mn2O3{Me3tacn}2](PF6)2-catalysed decomposition of H2O2 with stabilizer
# Assay type: physicochemical
# Description: A 50% strength aqueous solution of H2O2 (304 mg; 4.46 mmol) was added to 454 mg (4.46 mmol) of methyl pyruvate and to 535 mg (4.46 mmol) of glyoxylic methyl ester methyl hemiacetal, respectively. In the case of methyl pyruvate, a marked evolution of heat was discovered during the addition. After one hour, the H2O2/α-keto ester mixture was mixed with 1 ml of solvent and added to a suspension of 1.0 mg of [Mn2O3{Me3tacn}2](PF6)2 catalyst in 4 ml of solvent. The suspension was introduced into a 50 ml flask which was maintained at room temperature in a water bath. As a result of this addition, in cases where undissolved catalyst was still present, the catalyst dissolved completely.
# As a comparison, a suspension of 1.0 mg of [Mn2O3{Me3tacn}2](PF6)2 catalyst in 4 ml of solvent was combined with a 50% strength aqueous solution of H2O2 (304 mg; 4.46 mmol) and 1 ml of solvent without stabilizer.
# The amount of oxygen which was evolved from the decomposition of the hydrogen peroxide was determined as a function of time using a Brooks meter, which permitted measurement of the gas flow and the total amount of evolved gas.
compound,measurement,setting,value
COC(=O)C(C)=O [methyl pyruvate],O2 evolution V(O2) (Vmax(O2)*100%),"solv. acetic acid, t 1 min",0%
same,O2 evolution V(O2) (Vmax(O2)*100%),"solv. acetic acid, t 4 min",3%
same,O2 evolution V(O2) (Vmax(O2)*100%),"solv. acetic acid, t 5 min",8%
same,O2 evolution V(O2) (Vmax(O2)*100%),"solv. acetic acid, t 10 min",20%
same,O2 evolution V(O2) (Vmax(O2)*100%),"solv. acetic acid, t 15 min",24%
same,O2 evolution V(O2) (Vmax(O2)*100%),"solv. acetic acid, t 20 min",24%
same,O2 evolution V(O2) (Vmax(O2)*100%),"solv. acetic acid, t 25 min",24%
same,O2 evolution V(O2) (Vmax(O2)*100%),"solv. acetic acid, t 30 min",24%
same,O2 evolution V(O2) (Vmax(O2)*100%),"solv. acetic acid, t 35 min",24%
same,O2 evolution V(O2) (Vmax(O2)*100%),"solv. acetic acid, t 50 min",24%
same,O2 evolution V(O2) (Vmax(O2)*100%),"solv. acetic acid, t 60 min",24%
same,O2 evolution V(O2) (Vmax(O2)*100%),"solv. acetic acid, t 70 min",24%
same,O2 evolution V(O2) (Vmax(O2)*100%),"solv. acetic acid, t 80 min",24%
same,O2 evolution V(O2) (Vmax(O2)*100%),"solv. acetone, t 1 min",0%
same,O2 evolution V(O2) (Vmax(O2)*100%),"solv. acetone, t 4 min",0%
same,O2 evolution V(O2) (Vmax(O2)*100%),"solv. acetone, t 5 min",0%
same,O2 evolution V(O2) (Vmax(O2)*100%),"solv. acetone, t 10 min",0%
same,O2 evolution V(O2) (Vmax(O2)*100%),"solv. acetone, t 15 min",0%
same,O2 evolution V(O2) (Vmax(O2)*100%),"solv. acetone, t 20 min",0%
same,O2 evolution V(O2) (Vmax(O2)*100%),"solv. acetone, t 25 min",0%
same,O2 evolution V(O2) (Vmax(O2)*100%),"solv. acetone, t 30 min",0%
same,O2 evolution V(O2) (Vmax(O2)*100%),"solv. acetone, t 35 min",0%
same,O2 evolution V(O2) (Vmax(O2)*100%),"solv. acetone, t 50 min",6%
same,O2 evolution V(O2) (Vmax(O2)*100%),"solv. acetone, t 60 min",12%
same,O2 evolution V(O2) (Vmax(O2)*100%),"solv. acetone, t 70 min",20%
same,O2 evolution V(O2) (Vmax(O2)*100%),"solv. acetone, t 80 min",28%
same,O2 evolution V(O2) (Vmax(O2)*100%),"solv. acetonitrile, t 1 min",0%
same,O2 evolution V(O2) (Vmax(O2)*100%),"solv. acetonitrile, t 4 min",0%
same,O2 evolution V(O2) (Vmax(O2)*100%),"solv. acetonitrile, t 5 min",0%
same,O2 evolution V(O2) (Vmax(O2)*100%),"solv. acetonitrile, t 10 min",3%
same,O2 evolution V(O2) (Vmax(O2)*100%),"solv. acetonitrile, t 15 min",9%
same,O2 evolution V(O2) (Vmax(O2)*100%),"solv. acetonitrile, t 20 min",18%
same,O2 evolution V(O2) (Vmax(O2)*100%),"solv. acetonitrile, t 25 min",25%
same,O2 evolution V(O2) (Vmax(O2)*100%),"solv. acetonitrile, t 30 min",30%
same,O2 evolution V(O2) (Vmax(O2)*100%),"solv. acetonitrile, t 35 min",35%
same,O2 evolution V(O2) (Vmax(O2)*100%),"solv. acetonitrile, t 50 min",38%
same,O2 evolution V(O2) (Vmax(O2)*100%),"solv. acetonitrile, t 60 min",38%
same,O2 evolution V(O2) (Vmax(O2)*100%),"solv. acetonitrile, t 70 min",38%
same,O2 evolution V(O2) (Vmax(O2)*100%),"solv. acetonitrile, t 80 min",38%
same,O2 evolution V(O2) (Vmax(O2)*100%),"solv. ethyl acetate, t 1 min",0%
same,O2 evolution V(O2) (Vmax(O2)*100%),"solv. ethyl acetate, t 4 min",0%
same,O2 evolution V(O2) (Vmax(O2)*100%),"solv. ethyl acetate, t 5 min",0%
same,O2 evolution V(O2) (Vmax(O2)*100%),"solv. ethyl acetate, t 10 min",6%
same,O2 evolution V(O2) (Vmax(O2)*100%),"solv. ethyl acetate, t 15 min",9%
same,O2 evolution V(O2) (Vmax(O2)*100%),"solv. ethyl acetate, t 20 min",9%
same,O2 evolution V(O2) (Vmax(O2)*100%),"solv. ethyl acetate, t 25 min",9%
same,O2 evolution V(O2) (Vmax(O2)*100%),"solv. ethyl acetate, t 30 min",9%
same,O2 evolution V(O2) (Vmax(O2)*100%),"solv. ethyl acetate, t 35 min",9%
same,O2 evolution V(O2) (Vmax(O2)*100%),"solv. ethyl acetate, t 50 min",9%
same,O2 evolution V(O2) (Vmax(O2)*100%),"solv. ethyl acetate, t 60 min",9%
same,O2 evolution V(O2) (Vmax(O2)*100%),"solv. ethyl acetate, t 70 min",9%
same,O2 evolution V(O2) (Vmax(O2)*100%),"solv. ethyl acetate, t 80 min",9%
same,O2 evolution V(O2) (Vmax(O2)*100%),"solv. methanol, t 1 min",1%
same,O2 evolution V(O2) (Vmax(O2)*100%),"solv. methanol, t 4 min",2%
same,O2 evolution V(O2) (Vmax(O2)*100%),"solv. methanol, t 5 min",2%
same,O2 evolution V(O2) (Vmax(O2)*100%),"solv. methanol, t 10 min",2%
same,O2 evolution V(O2) (Vmax(O2)*100%),"solv. methanol, t 15 min",2%
same,O2 evolution V(O2) (Vmax(O2)*100%),"solv. methanol, t 20 min",2%
same,O2 evolution V(O2) (Vmax(O2)*100%),"solv. methanol, t 25 min",2%
same,O2 evolution V(O2) (Vmax(O2)*100%),"solv. methanol, t 30 min",2%
same,O2 evolution V(O2) (Vmax(O2)*100%),"solv. methanol, t 35 min",2%
same,O2 evolution V(O2) (Vmax(O2)*100%),"solv. methanol, t 50 min",2%
same,O2 evolution V(O2) (Vmax(O2)*100%),"solv. methanol, t 60 min",2%
same,O2 evolution V(O2) (Vmax(O2)*100%),"solv. methanol, t 70 min",2%
same,O2 evolution V(O2) (Vmax(O2)*100%),"solv. methanol, t 80 min",2%
same,O2 evolution V(O2) (Vmax(O2)*100%),"solv. t-butanol, t 1 min",0%
same,O2 evolution V(O2) (Vmax(O2)*100%),"solv. t-butanol, t 4 min",0%
same,O2 evolution V(O2) (Vmax(O2)*100%),"solv. t-butanol, t 5 min",0%
same,O2 evolution V(O2) (Vmax(O2)*100%),"solv. t-butanol, t 10 min",0%
same,O2 evolution V(O2) (Vmax(O2)*100%),"solv. t-butanol, t 15 min",0%
same,O2 evolution V(O2) (Vmax(O2)*100%),"solv. t-butanol, t 20 min",0%
same,O2 evolution V(O2) (Vmax(O2)*100%),"solv. t-butanol, t 25 min",0%
same,O2 evolution V(O2) (Vmax(O2)*100%),"solv. t-butanol, t 30 min",0%
same,O2 evolution V(O2) (Vmax(O2)*100%),"solv. t-butanol, t 35 min",0%
same,O2 evolution V(O2) (Vmax(O2)*100%),"solv. t-butanol, t 50 min",0%
same,O2 evolution V(O2) (Vmax(O2)*100%),"solv. t-butanol, t 60 min",0%
same,O2 evolution V(O2) (Vmax(O2)*100%),"solv. t-butanol, t 70 min",0%
same,O2 evolution V(O2) (Vmax(O2)*100%),"solv. t-butanol, t 80 min",0%
